Where a SMILES comes first, the peptide text is derived from it. [ ]: non-standard residue; d: D form. The star is where a group is joined. pS = N[C@@H](COP(=O)(O)O)C(=O)O; Thr(ol) = C[C@@H](O)[C@H](N)CO; X1 = O=C(COP(=O)(O)O)*
Columns and labels:
[1] = Normalized aggregation parameter (NAP) by UV-visible absorbance; type: physicochemical; details: single ligand shell
Description: UV-visible spectra were recorded at room temperature using a Molecular Probes (Oregon, USA) Spectramax 384-well spectrometer, using a 1 cm path length quartz cuvette, and a fixed slit width of 2 nrn. The spectrometer was calibrated daily using the machine's ‘Auto-Calibrate’ air calibration.
To allow the comparison of results from different ligand exchange experiments, the aggregation parameter (AP) was defined as follows: […]
A460 nm and A300 nm are absorbance values of solutions of nanoparticles at 460 nm and 300 nm, respectively. The empiric wavelength of 460 nm has been chosen to reflect the aggregated state of the nanoparticles. Aref460 nm and Aref300 nm are absorbance values of water at 460 nm and 300 nm. To allow comparison of results obtained with different ligand shells, this primary aggregation parameter was then normalized by dividing the aggregation parameter values of each experiment by the initial aggregation parameter value of the same experiment before the stability test. This provides a Normalized Aggregation Parameter (NAP). […] An increase of the NAP indicates the instability and eventually aggregation of the nanoparticles.

[2] = Electrolyte-induced aggregation stability test (NaCl, PBS) followed by UV-visible spectrometry; type: physicochemical; details: prepared in PBS and Tween 20, two days
Description: The stability of the nanoparticles was followed by UV-visible spectrometry. A decrease of absorbance indicates the aggregation of the nanoparticles. […] The four single peptide ligand shells were evaluated for their potential to stabilize the iron oxide nanoparticles against electrolyte-induced aggregation. The nanoparticles were mixing with a range of concentration of NaCl (0.1 mM to 1 M) at room temperature. The stability of the nanoparticles was followed by UV-visible spectrophotometry and the normalized aggregation parameters were determined. […] The aggregation of all nanoparticles were observed also in PBS buffer (with 100 mM NaCl) after few hours. […] This represents a promising result since the utilization of the peptide coated iron nanoparticles in vitro and in vivo are performed at 37° C. All the mixed peptide ligand shells providing sufficient yield of nanoparticles were evaluated for electrolyte-induced aggregation stability by mixing the nanoparticles with a range of concentration of NaCl (0.1 mM to 1 M) at room temperature. […] This represents again a promising results since the utilisation of the peptide coated iron nanoparticles in vitro and in vivo are performed at 37° C.

[3] = prepared using PBS and Tween 20

Row | Compound | NAP (normalized aggregation parameter) ([1]; prepared using water only) | other results
1 | O=P(O)(O)SCCCCCCCCCCCOCCOCCOCCO [Ligand L1, (HO)2-PO-S-C11-EG3-OH] | (1.25 ± 0.08) | –
2 | O=P(O)(O)SCCCCCCCCCCCOCCOCCOCCOCCOCCOCCO [Ligand L2, (HO)2-PO-S-C11-EG6-OH] | (1.31 ± 0.04) | –
3 | CC(C)[C@H](NC(=O)[C@H](COP(=O)(O)O)NC(=O)COP(=O)(O)O)C(=O)N[C@H](C(=O)N[C@H](C(=O)N[C@H](CO)[C@@H](C)O)C(C)C)C(C)C [Peptide S14, PO3H2-O-CH2-CO-Ser(PO3H2)-Val-Val-Val-Thr-ol] (X1-[pS]VVV[Thr(ol)]) | – | Stability in PBS buffer at 37° C. ([2]; 37° C.): same high stability; Stability in 1 M NaCl ([2]; room temperature): high stability; Stability in PBS buffer at room temperature ([2]; room temperature): high stability
4 | H-[pS]VVV[Thr(ol)] [Peptide S13] | (1.23 ± 0.13) | NAP (normalized aggregation parameter) [1, 3]: 2.23 ± 0.34
5 | PO3H2-O-CH2-CO-Gly-NH-PEG4-OH [Peptide S5] | (1.21 ± 0.21) | –
6 | PO3H2-O-CH2-CO-Ser(PO3H2)-NH-PEG4-OH [Peptide S7] | (1 ± 0.02) | NAP (normalized aggregation parameter) [1, 3]: 1.33 ± 0.08
7 | PO3H2-O-CH2-CO-Ser(PO3H2)-NH-PEG4-ol [Peptide S8] | (1 ± 0.01) | –

From patent publication US20180289843A1, “COATING FOR METAL NANOPARTICLES” (AGENCY FOR SCIENCE, TECHNOLOGY AND RESEARCH, priority 2015, published 2018)
